Laboratory results reported in paper PMC5742776 (Foods, 2017).

Tests used:
Assay type in all cases: biochemical
[1] = system: angiotensin-I-converting enzyme (ACE-I; EC 3.4.15.1); assay: ACE-I inhibition assay (ACE Kit-WST); conditions: 1 mg/mL, 37 °C, 1 h, absorbance 450 nm
Experimental: Protein isolates from all seven oat varieties and selected synthesised peptides were tested in vitro for ACE-I inhibition. The bioassay (ACE Kit—WST, Dojindo Laboratories, Kumamoto, Japan) was carried out according to the manufacturer’s instructions. First, 20 μL of each sample inhibitor at a concentration of 1 mg/mL ddH2O was added to 20 μL substrate and 20 μL enzyme working solution in triplicate. Samples were incubated at 37 °C for 1 h. Each well then had 200 μL indicator working solution added, followed by a further incubation at room temperature for 10 min. Absorbance at 450 nm was read using a FLUOstar Omega microplate reader (BMG LABTECH GmbH, Offenburg, Germany). The percentage inhibition was calculated using the following equation:% ACE-I inhibition = 100% Initial activity − Inhibitor × 100/100% Initial activity(2)

[2] = system: dipeptidyl peptidase-IV (DPP-IV; EC 3.4.14.5); conditions: synthesised peptides, 1 mg/mL; 10 μL sample at 1 mg/mL assay buffer + 30 μL buffer, 10 μL DPP-IV, 50 μL substrate; 37 °C, 30 min; fluorescence 355/460 nm; mean of triplicate samples
Experimental: Protein isolates from all seven oat varieties and selected synthesised peptides were tested in vitro for DPP-IV inhibition. […] First, 10 μL of each sample inhibitor at a concentration of 1 mg/mL assay buffer was added to 30 μL diluted assay buffer, 10 μL diluted DPP-IV, and 50 μL substrate solution, in triplicate. Samples were incubated at 37 °C for 30 min. Fluorescence was read with excitation wavelengths of 355 nm and emission wavelengths of 460 nm using a FLUOstar Omega microplate reader (BMG LABTECH GmbH, Offenburg, Germany). The percentage inhibition was calculated using the following equation:% DPP-IV inhibition = 100% Initial activity − Inhibitor × 100/100% Initial activity (3)

renin (EC 3.4.23.15) = assay: Renin Inhibition Screening Assay; conditions: synthesised peptides, 1 mg/mL; 10 μL sample at 1 mg/mL DMSO + 20 μL substrate, 150 μL buffer, 10 μL renin; 37 °C, 15 min; fluorescence 340/500 nm; mean of triplicate samples
Experimental: Protein isolates from all seven oat varieties and selected synthesised peptides were tested in vitro for renin inhibition activity. The Renin Inhibition Screening Assay (Cambridge BioSciences, Cambridge, UK) was carried out as per the manufacturer’s instructions. Briefly, 10 μL of each sample inhibitor at a concentration of 1 mg/mL dimethyl sulfoxide (DMSO) was added to 20 μL renin substrate, 150 μL assay buffer, and 10 μL renin, in triplicate. The samples were incubated at 37 °C for 15 min, and read with excitation wavelengths of 340 nm and emission wavelengths of 500 nm. Fluorescence was read using a FLUOstar Omega microplate reader (BMG LABTECH GmbH, Offenburg, Germany). The percentage inhibition was calculated using the following equation:% Renin inhibition = 100% Initial activity − Inhibitor × 100/100% Initial activity (1)

[3] = synthesised peptides, 20 μL sample at 1 mg/mL ddH2O + 20 μL substrate, 20 μL enzyme, mean of triplicate samples

% ACE-I inhibition [1, 3]	Compound	other results
48.9 ± 7.8%	FEPL [chemically synthesised peptide; 12S globulin f(53–56), papain]	–
53 ± 41.2%	IFFFL [chemically synthesised peptide; Avenin f(3–7), ficin]	% Renin inhibition (renin (EC 3.4.23.15)): 17.1% (±2.6%)

The remaining lines, values behind:

Compound	% ACE-I inhibition [1, 3]	other results
C[C@H](CS)C(=O)N1CCC[C@H]1C(=O)O [captopril, reference compound]	–	% ACE-I inhibition ([1]; positive control, triplicate): 97.7% (±23.2%)
FLLA [chemically synthesised peptide; 11S globulin/12S globulin f(203–206), papain]	97 ± 16.2%	–
FPIL [chemically synthesised peptide; 11S globulin f(364–367), ficin]	–	% DPP-IV inhibition [2]: 13.1 ± 3.2%
